Reference: ChEMBL document CHEMBL4219129, “Design, synthesis and biological evaluation of spiropyrimidinetriones oxazolidinone derivatives as antibacterial agents” (2018)
Values after ≈ are worked out from the molar mass of the structure shown.

Legend:
Type in all cases: functional
[1] = test system: Staphylococcus aureus; assay: Antibacterial activity against methicillin-resistant Staphylococcus aureus DB-00026
[2] = test system: Escherichia coli; assay: Antibacterial activity against TolC-deficient Escherichia coli
[3] = test system: Staphylococcus aureus; assay: Antibacterial activity against methicillin-resistant Staphylococcus aureus 1201984
[4] = test system: Staphylococcus epidermidis; assay: Antibacterial activity against methicillin-resistant Staphylococcus epidermidis ATCC 35984
[5] = test system: Staphylococcus aureus; assay: Antibacterial activity against […] Staphylococcus aureus ATCC 13709 SMITH
[6] = test system: Staphylococcus epidermidis; assay: Antibacterial activity against Staphylococcus epidermidis ATCC 12228
[7] = test system: Staphylococcus aureus; assay: Antibacterial activity against Staphylococcus aureus ATCC 29213
[8] = test system: Staphylococcus aureus; assay: Antibacterial activity against linezolid-resistant Staphylococcus aureus O-128
[9] = test system: Staphylococcus epidermidis; assay: Antibacterial activity against linezolid-resistant Staphylococcus epidermidis 1089191
[10] = test system: Staphylococcus aureus; assay: Antibacterial activity against methicillin-resistant Staphylococcus aureus 562
[11] = test system: Staphylococcus aureus; assay: Antibacterial activity against Staphylococcus aureus Mu50 ATCC 700699
[12] = test system: Staphylococcus aureus; assay: Antibacterial activity against PVL positive Staphylococcus aureus
[13] = test system: Staphylococcus epidermidis; assay: Antibacterial activity against linezolid-resistant Staphylococcus epidermidis 1117174
[14] = test system: Staphylococcus aureus; assay: Antibacterial activity against methicillin-resistant Staphylococcus aureus USA300 BAA-1556
[15] = test system: Staphylococcus aureus; assay: Antibacterial activity against Staphylococcus aureus FDA 209P
[16] = test system: Escherichia coli; assay: Antibacterial activity against Escherichia coli MG1655; conditions: K-12 substr. MG1655

Row | Compound | MIC [1] | MIC [2] | MIC [3] | MIC [4] | MIC [5] | MIC [6] | MIC [7] | MIC [8] | MIC [9] | MIC [10] | MIC [11] | MIC [12] | MIC [13] | MIC [14] | MIC [15] | MIC [16]
1 | CC(=O)NC[C@H]1CN(c2ccc3c(c2)CC2(C(=O)NNC2=O)C2COCCN32)C(=O)O1 (some centres undefined) | > 32 µg/mL | > 32 µg/mL | > 32 µg/mL | > 32 µg/mL | > 32 µg/mL | > 32 µg/mL | > 32 µg/mL | > 32 µg/mL | > 32 µg/mL | > 32 µg/mL | > 32 µg/mL | > 32 µg/mL | 32 µg/mL (≈ 74.5 µM) | > 32 µg/mL | > 32 µg/mL | > 32 µg/mL
2 | CC(=O)NC[C@H]1CN(c2ccc3c(c2)CC2(C(=O)NC(=O)NC2=O)C2COCCN32)C(=O)O1 (some centres undefined) | > 32 µg/mL | > 32 µg/mL | > 32 µg/mL | > 32 µg/mL | > 32 µg/mL | > 32 µg/mL | > 32 µg/mL | > 32 µg/mL | > 32 µg/mL | > 32 µg/mL | > 32 µg/mL | > 32 µg/mL | 32 µg/mL (≈ 70 µM) | > 32 µg/mL | > 32 µg/mL | > 32 µg/mL
3 | O=C1NC(=O)C2(Cc3cc(-c4ccc(N5C[C@H](CO)OC5=O)cc4F)ccc3N3CCCC32)C(=O)N1 (some centres undefined) | 8 µg/mL (≈ 16.2 µM) | 4 µg/mL (≈ 8.09 µM) | 4 µg/mL (≈ 8.09 µM) | ≤ 1 µg/mL | 32 µg/mL (≈ 64.7 µM) | 2 µg/mL (≈ 4.04 µM) | 4 µg/mL (≈ 8.09 µM) | 32 µg/mL (≈ 64.7 µM) | > 32 µg/mL | 2 µg/mL (≈ 4.04 µM) | 2 µg/mL (≈ 4.04 µM) | 4 µg/mL (≈ 8.09 µM) | 32 µg/mL (≈ 64.7 µM) | 8 µg/mL (≈ 16.2 µM) | 4 µg/mL (≈ 8.09 µM) | > 32 µg/mL
4 | O=C1O[C@@H](CO)CN1c1ccc2c(c1)CC1(C(=O)NNC1=O)C1COCCN21 (some centres undefined) | > 32 µg/mL | > 32 µg/mL | > 32 µg/mL | > 32 µg/mL | > 32 µg/mL | > 32 µg/mL | > 32 µg/mL | > 32 µg/mL | > 32 µg/mL | > 32 µg/mL | > 32 µg/mL | > 32 µg/mL | 32 µg/mL (≈ 82.4 µM) | > 32 µg/mL | > 32 µg/mL | > 32 µg/mL
5 | COC(=O)C1(C(=O)OC)Cc2cc(-c3ccc(N4C[C@H](CO)OC4=O)cc3F)ccc2N2CCOCC21 (some centres undefined) | 16 µg/mL (≈ 31.1 µM) | 16 µg/mL (≈ 31.1 µM) | 8 µg/mL (≈ 15.5 µM) | 8 µg/mL (≈ 15.5 µM) | > 32 µg/mL | 8 µg/mL (≈ 15.5 µM) | 16 µg/mL (≈ 31.1 µM) | > 32 µg/mL | > 32 µg/mL | 8 µg/mL (≈ 15.5 µM) | 16 µg/mL (≈ 31.1 µM) | 8 µg/mL (≈ 15.5 µM) | > 32 µg/mL | 16 µg/mL (≈ 31.1 µM) | 16 µg/mL (≈ 31.1 µM) | > 32 µg/mL
6 | CC(=O)NC[C@H]1CN(c2ccc(-c3ccc4c(c3)CC3(C(=O)NNC3=O)C3CCCN43)c(F)c2)C(=O)O1 (some centres undefined) | 8 µg/mL (≈ 15.8 µM) | 16 µg/mL (≈ 31.5 µM) | 16 µg/mL (≈ 31.5 µM) | 4 µg/mL (≈ 7.88 µM) | > 32 µg/mL | 8 µg/mL (≈ 15.8 µM) | 8 µg/mL (≈ 15.8 µM) | 32 µg/mL (≈ 63.1 µM) | > 32 µg/mL | 8 µg/mL (≈ 15.8 µM) | 4 µg/mL (≈ 7.88 µM) | 16 µg/mL (≈ 31.5 µM) | > 32 µg/mL | 8 µg/mL (≈ 15.8 µM) | 16 µg/mL (≈ 31.5 µM) | > 32 µg/mL
7 | CCC(=O)NC[C@H]1CN(c2ccc(-c3ccc4c(c3)CC3(C(=O)NC(=O)NC3=O)C3CCCN43)c(F)c2)C(=O)O1 (some centres undefined) | 8 µg/mL (≈ 14.6 µM) | 8 µg/mL (≈ 14.6 µM) | 8 µg/mL (≈ 14.6 µM) | 4 µg/mL (≈ 7.28 µM) | 32 µg/mL (≈ 58.2 µM) | 8 µg/mL (≈ 14.6 µM) | 16 µg/mL (≈ 29.1 µM) | 32 µg/mL (≈ 58.2 µM) | > 32 µg/mL | 4 µg/mL (≈ 7.28 µM) | 8 µg/mL (≈ 14.6 µM) | 8 µg/mL (≈ 14.6 µM) | 32 µg/mL (≈ 58.2 µM) | 16 µg/mL (≈ 29.1 µM) | 8 µg/mL (≈ 14.6 µM) | > 32 µg/mL
8 | CCC(=O)NC[C@H]1CN(c2ccc(-c3ccc4c(c3)CC3(C(=O)NC(=O)NC3=O)C3COCCN43)c(F)c2)C(=O)O1 (some centres undefined) | 16 µg/mL (≈ 28.3 µM) | 4 µg/mL (≈ 7.07 µM) | 16 µg/mL (≈ 28.3 µM) | 4 µg/mL (≈ 7.07 µM) | > 32 µg/mL | 4 µg/mL (≈ 7.07 µM) | 8 µg/mL (≈ 14.1 µM) | 32 µg/mL (≈ 56.6 µM) | > 32 µg/mL | 4 µg/mL (≈ 7.07 µM) | 4 µg/mL (≈ 7.07 µM) | 16 µg/mL (≈ 28.3 µM) | 32 µg/mL (≈ 56.6 µM) | 16 µg/mL (≈ 28.3 µM) | 16 µg/mL (≈ 28.3 µM) | > 32 µg/mL
9 | O=C1NC(=O)C2(Cc3cc(-c4ccc(N5C[C@H](CNC(=O)C(F)(F)F)OC5=O)cc4F)ccc3N3CCCC32)C(=O)N1 (some centres undefined) | 16 µg/mL (≈ 27.1 µM) | 16 µg/mL (≈ 27.1 µM) | 8 µg/mL (≈ 13.6 µM) | 4 µg/mL (≈ 6.79 µM) | 32 µg/mL (≈ 54.3 µM) | 8 µg/mL (≈ 13.6 µM) | 32 µg/mL (≈ 54.3 µM) | 32 µg/mL (≈ 54.3 µM) | 32 µg/mL (≈ 54.3 µM) | 8 µg/mL (≈ 13.6 µM) | 8 µg/mL (≈ 13.6 µM) | 8 µg/mL (≈ 13.6 µM) | 32 µg/mL (≈ 54.3 µM) | 16 µg/mL (≈ 27.1 µM) | 16 µg/mL (≈ 27.1 µM) | > 32 µg/mL
10 | O=C1O[C@@H](CO)CN1c1ccc(-c2ccc3c(c2)CC2(C(=O)NNC2=O)C2CCCN32)c(F)c1 (some centres undefined) | 8 to 16 µg/mL (≈ 17.2 to 34.3 µM) | > 32 µg/mL | > 32 µg/mL |  | ≥ 32 µg/mL | 2 to 32 µg/mL (≈ 4.29 to 68.6 µM) | 4 to 32 µg/mL (≈ 8.58 to 68.6 µM) | > 32 µg/mL | > 32 µg/mL | 2 to 32 µg/mL (≈ 4.29 to 68.6 µM) | 16 µg/mL (≈ 34.3 µM) | > 32 µg/mL | ≥ 32 µg/mL | 32 µg/mL (≈ 68.6 µM) | 32 µg/mL (≈ 68.6 µM) | > 32 µg/mL
